Assay results published in publication PMC8364686, “Safety, tolerability, pharmacokinetics and pharmacodynamics of single oral doses of BI 187004, an inhibitor of 11beta-hydroxysteroid dehydrogenase-1, in healthy male volunteers with overweight or obesity” (Clinical Diabetes and Endocrinology, 2021).

Experiment: Plasma pharmacokinetics of BI 187004 after single oral doses (LC–MS/MS)
Settings: male, human, plasma, po; for concentration at 10 h: planned time 10 h; for concentration at 12 h: planned time 12 h; for concentration at 36 h: planned time 36 h; for concentration at 48 h: planned time 48 h; for concentration at 72 h: planned time 72 h; for concentration at 96 h: planned time 96 h; for concentration at 0.5 h: planned time 0.5 h; for concentration at 1 h: planned time 1 h; for concentration at 1.5 h: planned time 1.5 h; for concentration at 2 h: planned time 2 h; for concentration at 2.5 h: planned time 2.5 h; for concentration at 3 h: planned time 3 h; for concentration at 4 h: planned time 4 h; for concentration at 5 h: planned time 5 h; for concentration at 6 h: planned time 6 h; for concentration at 8 h: planned time 8 h
[1] = 40 mg, BI 187004 plasma concentrations, 40 mg single oral, Max
[2] = 40 mg, BI 187004 plasma concentrations, 40 mg single oral, Mean
[3] = 40 mg, BI 187004 plasma concentrations, 40 mg single oral, Median
[4] = 40 mg, BI 187004 plasma concentrations, 40 mg single oral, Min
[5] = 40 mg, BI 187004 plasma concentrations, 40 mg single oral, gMean
[6] = 80 mg, BI 187004 plasma concentrations, 80 mg single oral, Max
[7] = 80 mg, BI 187004 plasma concentrations, 80 mg single oral, Mean
[8] = 80 mg, BI 187004 plasma concentrations, 80 mg single oral, Median
[9] = 80 mg, BI 187004 plasma concentrations, 80 mg single oral, Min
[10] = 80 mg, BI 187004 plasma concentrations, 80 mg single oral, gMean
[11] = 160 mg, BI 187004 plasma concentrations, 160 mg single oral, Max
[12] = 160 mg, BI 187004 plasma concentrations, 160 mg single oral, Mean
[13] = 160 mg, BI 187004 plasma concentrations, 160 mg single oral, Median
[14] = 160 mg, BI 187004 plasma concentrations, 160 mg single oral, Min
[15] = 160 mg, BI 187004 plasma concentrations, 160 mg single oral, gMean
[16] = 160 mg, BI 187004 plasma concentrations, 160 mg single oral, individual subjects

## N#Cc1ccc2c(c1)[C@H]1CCCN(C(=O)c3ccc4[nH]cnc4c3)[C@H]1C2 [BI 187004]
[1]
  concentration at 10 h: 1140 nM
  concentration at 12 h: 984 nM
  concentration at 36 h: 377 nM
  concentration at 48 h: 234 nM
  concentration at 72 h: 83.4 nM
  concentration at 96 h: 41.4 nM
[2]
  concentration at 10 h: 825 nM
  concentration at 12 h: 683 nM
  concentration at 36 h: 163 nM
  concentration at 48 h: 95.6 nM
  concentration at 72 h: 32 nM
  concentration at 96 h: 15.5 nM
[3]
  concentration at 10 h: 815 nM
  concentration at 12 h: 690 nM
  concentration at 36 h: 119 nM
  concentration at 48 h: 66.2 nM
  concentration at 72 h: 22.1 nM
  concentration at 96 h: 11.1 nM
[4]
  concentration at 10 h: 467 nM
  concentration at 12 h: 359 nM
  concentration at 36 h: 51.5 nM
  concentration at 48 h: 30.8 nM
  concentration at 72 h: 8.48 nM
  concentration at 96 h: 5.05 nM
[5]
  concentration at 10 h: 796 nM
  concentration at 12 h: 650 nM
  concentration at 36 h: 129 nM
  concentration at 48 h: 73 nM
  concentration at 72 h: 24.3 nM
  concentration at 96 h: 12.2 nM
40 mg, BI 187004 plasma concentrations, 40 mg single oral, planned time 24 h, Max
  concentration at 24 h: 625 nM
40 mg, BI 187004 plasma concentrations, 40 mg single oral, planned time 24 h, Mean
  concentration at 24 h: 353 nM
40 mg, BI 187004 plasma concentrations, 40 mg single oral, planned time 24 h, Median
  concentration at 24 h: 335 nM
40 mg, BI 187004 plasma concentrations, 40 mg single oral, planned time 24 h, Min
  concentration at 24 h: 169 nM
40 mg, BI 187004 plasma concentrations, 40 mg single oral, planned time 24 h, gMean
  concentration at 24 h: 321 nM
40 mg, C24 gMean (%gCV), 40 mg single oral dose
  concentration at 24 h: 321 nM
80 mg
  AUC(0-inf): 51.1 µM·h
  AUC(0-t): 43.1 µM·h
  Cmax: 2460 nM
  Tmax: 2.25 h
  Vd/F: 113 L
  half-life: 17.1 h
[6]
  concentration at 0.5 h: 4480 nM
  concentration at 1 h: 4770 nM
  concentration at 1.5 h: 4150 nM
  concentration at 2 h: 3590 nM
  concentration at 2.5 h: 3200 nM
  concentration at 3 h: 3340 nM
  concentration at 4 h: 3200 nM
  concentration at 5 h: 3210 nM
  concentration at 6 h: 2460 nM
  concentration at 8 h: 2840 nM
  concentration at 10 h: 2570 nM
  concentration at 12 h: 2210 nM
  concentration at 36 h: 678 nM
  concentration at 48 h: 596 nM
  concentration at 72 h: 234 nM
  concentration at 96 h: 110 nM
[7]
  concentration at 0.5 h: 1780 nM
  concentration at 1 h: 2490 nM
  concentration at 1.5 h: 2500 nM
  concentration at 2 h: 2330 nM
  concentration at 2.5 h: 2350 nM
  concentration at 3 h: 2240 nM
  concentration at 4 h: 2200 nM
  concentration at 5 h: 1980 nM
  concentration at 6 h: 1740 nM
  concentration at 8 h: 1820 nM
  concentration at 10 h: 1600 nM
  concentration at 12 h: 1380 nM
  concentration at 36 h: 411 nM
  concentration at 48 h: 281 nM
  concentration at 72 h: 90 nM
  concentration at 96 h: 44.9 nM
[8]
  concentration at 0.5 h: 1020 nM
  concentration at 1 h: 2300 nM
  concentration at 1.5 h: 2540 nM
  concentration at 2 h: 2400 nM
  concentration at 2.5 h: 2650 nM
  concentration at 3 h: 2470 nM
  concentration at 4 h: 2460 nM
  concentration at 5 h: 2040 nM
  concentration at 6 h: 1870 nM
  concentration at 8 h: 1690 nM
  concentration at 10 h: 1460 nM
  concentration at 12 h: 1210 nM
  concentration at 36 h: 372 nM
  concentration at 48 h: 230 nM
  concentration at 72 h: 65.1 nM
  concentration at 96 h: 23.8 nM
[9]
  concentration at 0.5 h: 304 nM
  concentration at 1 h: 771 nM
  concentration at 1.5 h: 958 nM
  concentration at 2 h: 1000 nM
  concentration at 2.5 h: 1200 nM
  concentration at 3 h: 1050 nM
  concentration at 4 h: 936 nM
  concentration at 5 h: 905 nM
  concentration at 6 h: 930 nM
  concentration at 8 h: 1100 nM
  concentration at 10 h: 1040 nM
  concentration at 12 h: 959 nM
  concentration at 36 h: 223 nM
  concentration at 48 h: 134 nM
  concentration at 72 h: 46.3 nM
  concentration at 96 h: 11.9 nM
[10]
  concentration at 0.5 h: 1150 nM
  concentration at 1 h: 2120 nM
  concentration at 1.5 h: 2220 nM
  concentration at 2 h: 2130 nM
  concentration at 2.5 h: 2200 nM
  concentration at 3 h: 2070 nM
  concentration at 4 h: 2020 nM
  concentration at 5 h: 1840 nM
  concentration at 6 h: 1650 nM
  concentration at 8 h: 1740 nM
  concentration at 10 h: 1530 nM
  concentration at 12 h: 1320 nM
  concentration at 36 h: 383 nM
  concentration at 48 h: 247 nM
  concentration at 72 h: 74.2 nM
  concentration at 96 h: 32.3 nM
80 mg, BI 187004 plasma concentrations, 80 mg single oral, planned time 24 h, Max
  concentration at 24 h: 1560 nM
80 mg, BI 187004 plasma concentrations, 80 mg single oral, planned time 24 h, Mean
  concentration at 24 h: 927 nM
80 mg, BI 187004 plasma concentrations, 80 mg single oral, planned time 24 h, Median
  concentration at 24 h: 812 nM
80 mg, BI 187004 plasma concentrations, 80 mg single oral, planned time 24 h, Min
  concentration at 24 h: 605 nM
80 mg, BI 187004 plasma concentrations, 80 mg single oral, planned time 24 h, gMean
  concentration at 24 h: 878 nM
80 mg, C24 gMean (%gCV), 80 mg single oral dose
  concentration at 24 h: 878 nM
160 mg
  AUC(0-inf): 111 µM·h
  AUC(0-t): 82.1 µM·h
  Cmax: 8310 nM
  Tmax: 1 h
  Vd/F: 87.9 L
  half-life: 14.5 h
[11]
  concentration at 0.5 h: 8780 nM
  concentration at 1 h: 8740 nM
  concentration at 1.5 h: 8830 nM
  concentration at 2 h: 8640 nM
  concentration at 2.5 h: 8030 nM
  concentration at 3 h: 7450 nM
  concentration at 4 h: 6750 nM
  concentration at 5 h: 5220 nM
  concentration at 6 h: 5320 nM
  concentration at 8 h: 4580 nM
  concentration at 10 h: 4290 nM
  concentration at 12 h: 3640 nM
[12]
  concentration at 0.5 h: 6380 nM
  concentration at 1 h: 7260 nM
  concentration at 1.5 h: 7280 nM
  concentration at 2 h: 7070 nM
  concentration at 2.5 h: 6730 nM
  concentration at 3 h: 5950 nM
  concentration at 4 h: 5800 nM
  concentration at 5 h: 4870 nM
  concentration at 6 h: 4340 nM
  concentration at 8 h: 3720 nM
  concentration at 10 h: 3090 nM
  concentration at 12 h: 2990 nM
[13]
  concentration at 0.5 h: 6830 nM
  concentration at 1 h: 7640 nM
  concentration at 1.5 h: 7380 nM
  concentration at 2 h: 6790 nM
  concentration at 2.5 h: 6550 nM
  concentration at 3 h: 5800 nM
  concentration at 4 h: 5790 nM
  concentration at 5 h: 4900 nM
  concentration at 6 h: 4230 nM
  concentration at 8 h: 3740 nM
  concentration at 10 h: 3040 nM
  concentration at 12 h: 2910 nM
[14]
  concentration at 0.5 h: 2520 nM
  concentration at 1 h: 3920 nM
  concentration at 1.5 h: 5190 nM
  concentration at 2 h: 6360 nM
  concentration at 2.5 h: 6070 nM
  concentration at 3 h: 5330 nM
  concentration at 4 h: 5060 nM
  concentration at 5 h: 4420 nM
  concentration at 6 h: 3430 nM
  concentration at 8 h: 2580 nM
  concentration at 10 h: 1940 nM
  concentration at 12 h: 2710 nM
[15]
  concentration at 0.5 h: 5860 nM
  concentration at 1 h: 7040 nM
  concentration at 1.5 h: 7190 nM
  concentration at 2 h: 7030 nM
  concentration at 2.5 h: 6700 nM
  concentration at 3 h: 5910 nM
  concentration at 4 h: 5770 nM
  concentration at 5 h: 4860 nM
  concentration at 6 h: 4290 nM
  concentration at 8 h: 3670 nM
  concentration at 10 h: 3000 nM
  concentration at 12 h: 2970 nM
[16]
  concentration at 1.5 h: 7480 nM
  concentration at 2 h: 7230 nM
  concentration at 2.5 h: 6930 nM
  concentration at 3 h: 5470 nM
  concentration at 4 h: 5230 nM
  concentration at 5 h: 4420 nM
  concentration at 6 h: 4030 nM
  concentration at 8 h: 3650 nM
  concentration at 12 h: 2710 nM
160 mg, BI 187004 plasma concentrations, 160 mg single oral, planned time 24 h, Max
  concentration at 24 h: 2690 nM
160 mg, BI 187004 plasma concentrations, 160 mg single oral, planned time 24 h, Mean
  concentration at 24 h: 1680 nM
160 mg, BI 187004 plasma concentrations, 160 mg single oral, planned time 24 h, Median
  concentration at 24 h: 1490 nM
160 mg, BI 187004 plasma concentrations, 160 mg single oral, planned time 24 h, Min
  concentration at 24 h: 1360 nM
160 mg, BI 187004 plasma concentrations, 160 mg single oral, planned time 24 h, gMean
  concentration at 24 h: 1630 nM
160 mg, BI 187004 plasma concentrations, 160 mg single oral, planned time 24 h, individual subjects
  concentration at 24 h: 1360 nM
